In ChEMBL document CHEMBL1126546, “Vitamin D analogues: new regulators of cancer cell growth and differentiation” (Bioorg Med Chem Lett, 1993) one finds Concentration, IC50 and inhibition in vivo data, which are given here for two compounds.

Test [1] concerns U-937. The experiment in a line: Concentration required for the compound to induce U 937 cells along the monocyte-macrophage pathway. Type of test: functional, cell-based. To be noted: Homo sapiens.
For test [2], the system named is U-937. The experiment in a line: Compound was tested in vitro to inhibit proliferation of U 937 human histiolytic lymphoma cells. Type of test: functional, cell-based.
The next test has as its system Rattus norvegicus. The experiment in a line: Compound was tested for in vivo antitumor effect on rats with mammary tumors induced by nitrosomethylurea at a dose of 2.5 ug/kg/day. The test is classed as functional.

In the test on U-937 [1], `C=C1/C(=C\C=C2/CCC[C@]3(C)[C@@H]([C@H](C)CCCC(C)(C)O)CC[C@@H]23)C[C@@H](O)C[C@@H]1O` registered a Concentration of 2 nM.

Regarding `C=C1/C(=C\C=C2/CCC[C@]3(C)[C@@H]([C@H](C)/C=C/C=C/C(O)(CC)CC)CC[C@@H]23)C[C@@H](O)C[C@@H]1O` [SEOCALCITOL], the Concentration in the test on U-937 [1] came to 0.03 nM. For the same compound, in the test on U-937 [2], 0.25 nM corresponded to half-maximal inhibition (IC50). Also, the inhibition in vivo at 0.0025 mg/kg/day in the test on Rattus norvegicus is 80%.

Usually IC50 stands for the point on the concentration scale where inhibition reaches its midpoint. Read a low IC50 as higher potency. One may read the inhibition in vivo as the relative decrease from the control value, in per cent. Read a high inhibition in vivo as strong suppression.
